Consider one molecule from the NIST ThermoML archive (doi:10.1021/je700591h).

SMILES strings stand for the structures. Numbers after ± are expanded uncertainties.

For this series the following is noted: Crystal.

As for `C[S+](C)[O-]` [dimethyl sulfoxide], the Normal melting temperature was 18.51 ± 6 °C.
